# Results published in patent publication EP3046573B1, “AMYLIN ANALOGUES” (Zealand Pharma A/S, priority 2013, dated 2015).
# Numbered stars: 1 amine (or outer) side, 2 acyl side, 3 side chain; on linkers, the order of the positions; unused ones are H or OH. Bridge positions count the residues as written; N and C are the ends. Square brackets hold non-standard residues; d marks the D form. Peptide text beside a SMILES is read from it. * marks the point of attachment. C20 diacid = O=C(O)CCCCCCCCCCCCCCCCCCC(=O)*; γGlu = O=C(O)[C@H](CCC(=O)[*:2])N[*:1]; Hyp = O=C(O)[C@@H]1C[C@@H](O)CN1; NMeI = CC[C@H](C)[C@H](NC)C(=O)O; Sar = CNCC(=O)O
# Columns and labels:
# [1] = target: T1, human calcitonin receptor (hCTR2) (Homo sapiens, UniProt P30988); experiment: hCTR2 assay: induction of cAMP (AlphaScreen cAMP Assay kit) in COS7 cells expressing hCTR2; format: cell-based; conditions: cAMP induction in COS7 cells expressing hCTR2; average of a minimum of 3 determinations; read-out: hCTR2 EC50
# T1 construct: expressed in transfected cells
# T1 sequence (P30988 25-474): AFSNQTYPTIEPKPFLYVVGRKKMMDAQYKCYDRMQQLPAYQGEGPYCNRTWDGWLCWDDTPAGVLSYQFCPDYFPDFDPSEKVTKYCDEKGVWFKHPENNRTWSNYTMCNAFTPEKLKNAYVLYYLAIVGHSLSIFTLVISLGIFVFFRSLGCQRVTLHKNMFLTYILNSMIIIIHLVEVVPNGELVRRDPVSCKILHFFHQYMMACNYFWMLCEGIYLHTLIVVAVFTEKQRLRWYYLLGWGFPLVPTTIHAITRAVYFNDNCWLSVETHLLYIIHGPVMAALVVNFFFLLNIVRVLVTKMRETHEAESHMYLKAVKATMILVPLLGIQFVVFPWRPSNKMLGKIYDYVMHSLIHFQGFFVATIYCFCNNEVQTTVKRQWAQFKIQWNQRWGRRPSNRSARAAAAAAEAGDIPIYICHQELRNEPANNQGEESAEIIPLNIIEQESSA
# How it was run: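 cAMP induction was measured by AlphaScreen in COS7 cells stably expressing hCTR2 without RAMPs, after 15 min at 37° C with increasing peptide concentrations, 100 µM IBMX and 0.1% casein (Tyrode, pH 7.4). A 4-parameter logistic fit gave EC50 and % efficacy versus pramlintide.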
# [2] = Solubility assessment (turbidity absorbance at 325 nm); format: physicochemical; conditions: stock 2 mg/ml diluted 1:1, ambient temperature (typically 25°C), n=1; for Solubility, Acetate buffer pH 4: 100 mM acetate buffer pH 4.0; for Solubility, Acetate buffer pH 5: 100 mM acetate buffer pH 5.0; for Solubility, Histidine buffer pH 6: 100 mM histidine buffer pH 6.0; for Solubility, Histidine buffer pH 7: 100 mM histidine buffer pH 7.0; for Solubility, Phosphate buffer pH 6: 100 mM phosphate buffer pH 6.0; for Solubility, Phosphate buffer pH 7: 100 mM phosphate buffer pH 7.0; for Solubility, Phosphate buffer pH 7.5: 100 mM phosphate buffer pH7.5
# How it was run: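 Read-out: turbidity as absorbance at 325 nm (280 nm also read), single samples, ambient temperature of typically 25°C. Samples were a 1:1 mix of 2 mg/ml stock (water, pH 2.5) with 100 mM acetate, histidine or phosphate buffers spanning pH 4.0–7.5. Cut-off: A325 ≤ 0.02 indicates ≥ 1 mg/ml.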
# Sprague Dawley (SD) rats = experiment: Acute food intake and body weight in normal Sprague Dawley rats; format: in vivo; conditions: vehicle-corrected, dose 30 nmol/kg sc, once; for Body weight loss (%) after 96 hours: mean ± SEM, n = 8
# How it was run: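 Normal male-unspecified SD rats, n = 8 per group, given a single s.c. peptide dose of 30 nmol/kg just before dark phase, with vehicle and positive control groups. Food intake recorded at 0, 4, 7, 10, 24, 48, 72 and 96 h; body weight daily; means ± SEM.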
SMILES,EC50 [1] [nM],"Solubility, Acetate buffer pH 4 [2]","Solubility, Acetate buffer pH 5 [2]","Solubility, Histidine buffer pH 6 [2]","Solubility, Histidine buffer pH 7 [2]","Solubility, Phosphate buffer pH 6 [2]","Solubility, Phosphate buffer pH 7 [2]","Solubility, Phosphate buffer pH 7.5 [2]",Food intake inhibition (%) after 48 hours (Sprague Dawley (SD) rats) [%],Body weight loss (%) after 96 hours (Sprague Dawley (SD) rats) [%]
"CC[C@H](C)[C@@H](C(=O)N[C@@H](CC(C)C)C(=O)N[C@@H](CO)C(=O)N[C@@H](CO)C(=O)N[C@H](C(=O)N[C@@H](CCC(=O)O)C(=O)N[C@H](C(=O)NCC(=O)N[C@@H](CO)C(=O)N[C@@H](CCC(=O)O)C(=O)N[C@H](C(=O)N1CCC[C@H]1C(N)=O)[C@@H](C)O)C(C)C)[C@@H](C)O)N(C)C(=O)[C@H](C)NC(=O)CN(C)C(=O)[C@H](Cc1ccccc1)NC(=O)[C@H](CO)NC(=O)[C@H](CO)NC(=O)[C@H](CO)NC(=O)[C@H](CO)NC(=O)[C@H](CCCNC(=N)N)NC(=O)[C@H](Cc1c[nH]cn1)NC(=O)[C@H](CC(C)C)NC(=O)[C@H](Cc1ccccc1)NC(=O)[C@H](CCC(=O)O)NC(=O)[C@H](C)NC(=O)[C@H](CC(C)C)NC(=O)[C@H](CCCNC(=N)N)NC(=O)[C@H](CCC(=O)O)NC(=O)[C@@H](NC(=O)[C@H](C)NC(=O)[C@@H]1CSSC[C@H](NC(=O)[C@H](CCCNC(=N)N)NC(=O)CC[C@H](NC(=O)CCCCCCCCCCCCCCCCCCC(=O)O)C(=O)O)C(=O)N[C@@H](CCC(=O)O)C(=O)N[C@@H]([C@@H](C)O)C(=O)N[C@@H](C)C(=O)N[C@@H]([C@@H](C)O)C(=O)N1)[C@@H](C)O [Compound 134, [19CD]-isoGlu-RC()ETATC()ATERLAEFLHRSSSSF-Gly(Me)-A-Ile(Me)-LSSTEVGSETP-NH2] ({C20 diacid-γGlu}-RCETATCATERLAEFLHRSSSSF[Sar]A[NMeI]LSSTEVGSETP-NH2; disulfide 2-7)",0.22,SS (SS indicates solubility ≥ 1mg/ml),SS (SS indicates solubility ≥ 1mg/ml),SS (SS indicates solubility ≥ 1mg/ml),SS (SS indicates solubility ≥ 1mg/ml),SS (SS indicates solubility ≥ 1mg/ml),SS (SS indicates solubility ≥ 1mg/ml),SS (SS indicates solubility ≥ 1mg/ml),27,4 ± 3.1
"CC[C@H](C)[C@@H](C(=O)N[C@@H](CC(C)C)C(=O)N[C@@H](CO)C(=O)N[C@@H](CO)C(=O)N[C@H](C(=O)N[C@@H](CCC(=O)O)C(=O)N[C@H](C(=O)NCC(=O)N[C@@H](CO)C(=O)N[C@@H](CCC(=O)O)C(=O)N[C@H](C(=O)N1CCC[C@H]1C(N)=O)[C@@H](C)O)C(C)C)[C@@H](C)O)N(C)C(=O)[C@H](C)NC(=O)CN(C)C(=O)[C@H](Cc1ccccc1)NC(=O)[C@H](CO)NC(=O)[C@H](CO)NC(=O)[C@H](CCCNC(=N)N)NC(=O)[C@H](Cc1c[nH]cn1)NC(=O)[C@H](CC(C)C)NC(=O)[C@H](Cc1ccccc1)NC(=O)[C@H](CCC(=O)O)NC(=O)[C@H](C)NC(=O)[C@H](CC(C)C)NC(=O)[C@H](CCCNC(=N)N)NC(=O)[C@H](CCC(=O)O)NC(=O)[C@@H](NC(=O)[C@H](C)NC(=O)[C@@H]1CSSC[C@H](NC(=O)[C@H](Cc2c[nH]c3ccccc23)NC(=O)CC[C@H](NC(=O)CCCCCCCCCCCCCCCCCCC(=O)O)C(=O)O)C(=O)NCC(=O)N[C@@H]([C@@H](C)O)C(=O)N[C@@H](C)C(=O)N[C@@H]([C@@H](C)O)C(=O)N1)[C@@H](C)O [Compound 161, [19CD]-isoGlu-WC()GTATC()ATERLAEFLHRSSF-Gly(Me)-A-Ile(Me)-LSSTEVGSETP-NH2] ({C20 diacid-γGlu}-WCGTATCATERLAEFLHRSSF[Sar]A[NMeI]LSSTEVGSETP-NH2; disulfide 2-7)",0.084,II (II indicates solubility ≤ 1 mg/ml),SS (SS indicates solubility ≥ 1mg/ml),SS (SS indicates solubility ≥ 1mg/ml),SS (SS indicates solubility ≥ 1mg/ml),SS (SS indicates solubility ≥ 1mg/ml),SS (SS indicates solubility ≥ 1mg/ml),SS (SS indicates solubility ≥ 1mg/ml),99,10 ± 2.7
"CC[C@H](C)[C@@H](C(=O)N[C@@H](CC(C)C)C(=O)N[C@@H](CO)C(=O)N[C@@H](CO)C(=O)N[C@H](C(=O)N[C@@H](CCC(=O)O)C(=O)N[C@H](C(=O)NCC(=O)N[C@@H](CO)C(=O)N[C@@H](CCC(=O)O)C(=O)N[C@H](C(=O)N1CCC[C@H]1C(N)=O)[C@@H](C)O)C(C)C)[C@@H](C)O)N(C)C(=O)[C@H](C)NC(=O)CN(C)C(=O)[C@H](Cc1ccccc1)NC(=O)[C@H](CO)NC(=O)[C@H](CO)NC(=O)[C@H](CCCNC(=N)N)NC(=O)[C@H](Cc1c[nH]cn1)NC(=O)[C@H](CC(C)C)NC(=O)[C@H](Cc1ccccc1)NC(=O)[C@H](CCC(=O)O)NC(=O)[C@H](C)NC(=O)[C@H](CC(C)C)NC(=O)[C@H](CCCNC(=N)N)NC(=O)[C@H](CCC(=O)O)NC(=O)[C@@H](NC(=O)[C@H](C)NC(=O)[C@@H]1CSSC[C@H](NC(=O)[C@H](CCCNC(=N)N)NC(=O)CC[C@H](NC(=O)CCCCCCCCCCCCCCCCCCC(=O)O)C(=O)O)C(=O)NCC(=O)N[C@@H]([C@@H](C)O)C(=O)N[C@@H](C)C(=O)N[C@@H]([C@@H](C)O)C(=O)N1)[C@@H](C)O [Compound 162, [19CD]-isoGlu-RC()GTATC()ATERLAEFLHRSSF-Gly(Me)-A-Ile(Me)-LSSTEVGSETP-NH2] ({C20 diacid-γGlu}-RCGTATCATERLAEFLHRSSF[Sar]A[NMeI]LSSTEVGSETP-NH2; disulfide 2-7)",0.049,SS (SS indicates solubility ≥ 1mg/ml),SS (SS indicates solubility ≥ 1mg/ml),SS (SS indicates solubility ≥ 1mg/ml),SS (SS indicates solubility ≥ 1mg/ml),SS (SS indicates solubility ≥ 1mg/ml),SS (SS indicates solubility ≥ 1mg/ml),SS (SS indicates solubility ≥ 1mg/ml),99,13 ± 2.2
"CC[C@H](C)[C@@H](C(=O)N[C@@H](CC(C)C)C(=O)N[C@@H](CO)C(=O)N[C@@H](CO)C(=O)N[C@H](C(=O)N[C@@H](CCC(=O)O)C(=O)N[C@H](C(=O)NCC(=O)N[C@@H](CO)C(=O)N[C@@H](CCC(=O)O)C(=O)N[C@H](C(=O)N1C[C@H](O)C[C@H]1C(N)=O)[C@@H](C)O)C(C)C)[C@@H](C)O)N(C)C(=O)[C@H](C)NC(=O)CN(C)C(=O)[C@H](Cc1ccccc1)NC(=O)[C@H](CO)NC(=O)[C@H](CO)NC(=O)[C@H](CCCNC(=N)N)NC(=O)[C@H](Cc1c[nH]cn1)NC(=O)[C@H](CC(C)C)NC(=O)[C@H](Cc1ccccc1)NC(=O)[C@H](CCC(=O)O)NC(=O)[C@H](C)NC(=O)[C@H](CC(C)C)NC(=O)[C@H](CCCNC(=N)N)NC(=O)[C@H](CCC(=O)O)NC(=O)[C@@H](NC(=O)[C@H](C)NC(=O)[C@@H]1CSSC[C@H](NC(=O)[C@H](CCCNC(=N)N)NC(=O)CC[C@H](NC(=O)CCCCCCCCCCCCCCCCCCC(=O)O)C(=O)O)C(=O)NCC(=O)N[C@@H]([C@@H](C)O)C(=O)N[C@@H](C)C(=O)N[C@@H]([C@@H](C)O)C(=O)N1)[C@@H](C)O [Compound 166, [19CD]-isoGlu-RC()GTATC()ATERLAEFLHRSSF-Gly(Me)-A-Ile(Me)-LSSTEVGSET-Hyp-NH2] ({C20 diacid-γGlu}-RCGTATCATERLAEFLHRSSF[Sar]A[NMeI]LSSTEVGSET[Hyp]-NH2; disulfide 2-7)",0.074,SS (SS indicates solubility ≥ 1mg/ml),SS (SS indicates solubility ≥ 1mg/ml),SS (SS indicates solubility ≥ 1mg/ml),SS (SS indicates solubility ≥ 1mg/ml),SS (SS indicates solubility ≥ 1mg/ml),SS (SS indicates solubility ≥ 1mg/ml),SS (SS indicates solubility ≥ 1mg/ml),99,12 ± 1.6
